These results are taken from patent publication US20090036475A1, “Pyrazolyl-Pyrimidines as Potassium Channel Modulating Agents and Their Medical Use” (NEUROSEARCH A/S, priority 2006, published 2009).

As usually defined, the melting point is the temperature, or range, at which the solid turns liquid.

The target of data set [1] is T1, small-conductance Ca2+-activated K+ channel, subtype 3 (SK3) (Homo sapiens, UniProt Q9UGI6).
T1 construct: expressed in transfected cells; host or cells: HEK293
The data set can be described thus: Whole-cell patch-clamp recording of SK3 current in HEK293 cells. It counts as cell-based. Particulars: hSK3 stably expressed in HEK293 cells, baseline current at −20 mV, free Ca2+ 300 nM, room temperature. How it is done:
The ionic current through small-conductance Ca^2+-activated K^+ channels (SK channels, subtype 3) is recorded using the whole-cell configuration of the patch-clamp technique.
The small-conductance Ca^2+-activated K^+ channel, subtype 3 (SK3) was cloned from human skeletal muscle and stably expressed in HEK293 cells.
Human SK3 (hSK3) was sub-cloned into the expression vector pNS3n, a customized vector derived from pcDNA3 (InVitrogen) to give the plasmid construct pNS3_hSK3. HEK293 tissue culture cells were grown in DMEM (Dulbecco's Modified Eagle Medium) supplemented with 10% FCS (foetal calf serum) at 37° C. in 5% CO2. […]
Experiments are carried out on one of several patch-clamp set-ups. […] Data are stored directly on the hard-disk and analysed by IGOR software (Wavemetrics, Lake Oswega, Oreg., USA).
The whole-cell configuration of the patch-clamp technique is applied. […] Cell capacitance is electronically compensated and the resistance between the pipette and the cell interior (the series resistance, Rs) is measured and compensated for. […]
The intracellular (pipette) solution has the following composition (in mM): 105 KCl, 45 KOH, 10 EGTA, 1.21 MgCl2, 7.63 CaCl2, and 10 HEPES (pH=7.2 with HCl). The calculated free concentration of Ca^2+ in this solution is 300 nM and that of Mg^2+ is 1 mM. […]
Active compounds are quantified by calculating the change in baseline current at −20 mV. […]
(In general: The patch-clamp technique gives a direct electrical read-out from membranes.)

Molecule `Cc1ccc(Nc2ccnc(-n3nc(C)cc3C)n2)cc1` [Compound B11, [2-(3,5-Dimethyl-pyrazol-1-yl)-pyrimidin-4-yl]-p-tolyl-amine] showed a melting point of 52 to 55.6 °C.

Take `Cc1cc(Nc2ccccc2)nc(-n2nc(C)cc2C)n1` [Compound B2, [2-(3,5-Dimethyl-pyrazol-1-yl)-6-methyl-pyrimidin-4-yl]-phenyl-amine]: the melting point lay within 134.5 to 138.8 °C.

Turning to `Cc1cc(Nc2cccc(C(F)(F)F)c2)nc(-n2nc(C)cc2C)n1` [Compound B6, [2-(3,5-Dimethyl-pyrazol-1-yl)-6-methyl-pyrimidin-4-yl]-(3-trifluoromethyl-phenyl)-amine], the melting point fell in the range of 130.5 to 133.6 °C.

In the case of `Cc1cc(C)n(-c2ncc(Br)c(Nc3ccc(Cl)cc3)n2)n1` [Compound B10, [5-Bromo-2-(3,5-dimethyl-pyrazol-1-yl)-pyrimidin-4-yl]-(4-chloro-phenyl)-amine], the melting point fell in the range of 144.5 to 154 °C.

Regarding `Cc1cc(C)n(-c2ncc(C)c(Nc3ccc(Cl)cc3)n2)n1` [Compound B12, (4-Chloro-phenyl)-[2-(3,5-dimethyl-pyrazol-1-yl)-5-methyl-pyrimidin-4-yl]-amine], the melting point was in the range of 179.2 to 182.3 °C.

In the case of `Cc1ccc(Nc2cc(C)nc(-n3nc(C)cc3C)n2)cc1` [Compound B1, [2-(3,5-Dimethyl-pyrazol-1-yl)-6-methyl-pyrimidin-4-yl]-p-tolyl-amine], the melting point lay in the range of 135.1 to 137.5 °C.

`Cc1cc(Nc2ccc(Cl)cc2)nc(-n2nc(C)cc2C)n1` [Compound B3, (4-Chloro-phenyl)-[2-(3,5-dimethyl-pyrazol-1-yl)-6-methyl-pyrimidin-4-yl]-amine] showed a melting point of 181 to 183.2 °C.

On to `Cc1cc(C)n(-c2nccc(Nc3ccc(Cl)cc3)n2)n1` [Compound B9, (4-Chloro-phenyl)-[2-(3,5-dimethyl-pyrazol-1-yl)-pyrimidin-4-yl]-amine], for which the melting point was in the range of 135.5 to 140 °C.

`Cc1cc(Nc2ccc(Cl)c(Cl)c2)nc(-n2nc(C)cc2C)n1` [Compound B4, (3,4-Dichloro-phenyl)-[2-(3,5-dimethyl-pyrazol-1-yl)-6-methyl-pyrimidin-4-yl]-amine]: the melting point fell in the range of 135.3 to 137.8 °C.

Turning to `Cc1cc(C)n(-c2nccc(Nc3cccc(C(F)(F)F)c3)n2)n1` [Compound B8, [2-(3,5-Dimethyl-pyrazol-1-yl)-pyrimidin-4-yl]-(3-trifluoromethyl-phenyl)-amine], the melting point lay in the range of 98.5 to 99.6 °C.

As for `Cc1cc(NCc2ccccc2)nc(-n2nc(C)cc2C)n1` [Compound A1, Benzyl-[2-(3,5-dimethyl-pyrazol-1-yl)-6-methyl-pyrimidin-4-yl]-amine], the melting point lay within 135.9 to 137.3 °C.

Molecule `Cc1cc(C)n(-c2ncc(Cl)c(NC3CCCCC3)n2)n1` [Compound A6, [5-Chloro-2-(3,5-dimethyl-pyrazol-1-yl)-pyrimidin-4-yl]-cyclohexyl-amine] registered a melting point of 90 to 99 °C.

On to `Cc1cc(NC2CCCCC2)nc(-n2nc(C)cc2C)n1` [Compound A2, Cyclohexyl-[2-(3,5-dimethyl-pyrazol-1-yl)-6-methyl-pyrimidin-4-yl]-amine], for which, in data set [1], the “SC100 (Stimulating Concentration required for increasing the baseline current by 100%)” value was 0.1 µM.

For `Cc1cc(C)n(-c2nccc(NC3CCCCC3)n2)n1` [Compound A5, Cyclohexyl-[2-(3,5-dimethyl-pyrazol-1-yl)-pyrimidin-4-yl]-amine], the melting point is 144.5 to 146.7 °C.
